Measured values reported in publication PMC13077603, “Fluorine‐18‐Labeled Nucleotide Analogs Targeting Ecto‐5'‐Nucleotidase (CD73) for Positron Emission Tomography Imaging of Solid Tumors” (Angewandte Chemie (International Ed. in English), 2026).

Experiments:
[1] = logD7.4 determination of radiotracers (PBS/octan-1-ol); assay type: physicochemical; conditions: octan-1-ol/PBS; PBS pH 7.4 / octan-1-ol, radiotracer
Method: The logD 7.4 values of both radiotracers were determined using a previously described method based on their distribution between phosphate‐buffered saline (PBS) and octan‐1‐ol.
Triazole radiotracers (~400 kBq) in PBS buffer (10 µL, pH 7.4) were added to PBS buffer (590 µL, pH 7.4) and octan-1-ol (600 µL). The two-layer mixture was shaken for 3 min on a vortex mixer at r.t. and centrifuged (200 g) for 5 min. The main part of the octanol layer (400 µL) was carefully collected and transferred to a new tube containing PBS buffer (400 µL, pH 7.4). The two-layer mixture was shaken again for 10 min and centrifuged for 5 min (200 g). Three samples were prepared, and two aliquots (á 100 µL) of both layers were measured in a gamma-counter 2480 Wizard2 (Perkin-Elmer, Waltham, USA). The partition coefficient was determined by dividing cpm (octanol) by cpm (PBS) and indicated as logD7.4 (exp.).

[2] = molecular target: T1, Soluble recombinant human CD73 (Homo sapiens, UniProt P21589); experiment: CD73 enzyme inhibition assay, soluble recombinant human CD73; assay type: biochemical; conditions: soluble recombinant human CD73, Km 17 µM, substrate AMP (5 µM)
T1 sequence (P21589 27-549 limits assumed): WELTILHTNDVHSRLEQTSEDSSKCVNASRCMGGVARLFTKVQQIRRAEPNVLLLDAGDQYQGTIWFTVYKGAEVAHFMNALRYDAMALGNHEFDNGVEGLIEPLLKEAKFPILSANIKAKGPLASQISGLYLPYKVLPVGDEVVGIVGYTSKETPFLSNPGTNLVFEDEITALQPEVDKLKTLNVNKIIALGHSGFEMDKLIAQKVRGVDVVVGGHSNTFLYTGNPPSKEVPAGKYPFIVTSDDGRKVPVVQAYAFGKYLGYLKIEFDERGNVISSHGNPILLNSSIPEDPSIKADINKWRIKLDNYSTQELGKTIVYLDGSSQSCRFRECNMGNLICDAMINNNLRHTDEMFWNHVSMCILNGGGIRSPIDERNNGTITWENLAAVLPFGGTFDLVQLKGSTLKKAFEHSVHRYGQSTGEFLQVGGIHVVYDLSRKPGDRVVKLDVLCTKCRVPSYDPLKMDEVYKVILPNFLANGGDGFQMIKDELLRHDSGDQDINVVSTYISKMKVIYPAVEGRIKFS
Method: Both compounds were evaluated for metabolic stability in mouse liver microsomes (MLM) and plasma protein binding (PPB) (Table 1).
The CD73 enzyme inhibition assay of recombinant soluble CD73, membrane-bound human CD73, soluble rat CD73 and mouse CD73 was performed as previously described.^[16,35^]

[3] = PET/gamma counter biodistribution in healthy mice; assay type: in vivo, C57BL/6 WT mice
Method: Next, biodistribution studies of compounds [^18F]1 and [^18F]2 were performed in female C57BL/6 WT mice. Dynamic (0–90 min), static (77–90 min), and late (240–260 min) scans were performed in a small animal PET scanner. Each PET scan was combined with computer tomography (CT). In the case of [^18F]2, […] of the tracer was excreted within the first 30 min via renal (19%ID) and hepatobiliary (60%ID, Figure 5A–C) routes. After 90 min, most of the tracer was found in the intestine, gallbladder, bladder (urine), and liver, while only 0.3 ± 0.1 %ID/mL of the radiosignal was detected in the blood at that time point (Figure 5B, C). Concentrations in the lung, heart, muscle, and brain were also relatively low. Nevertheless, during the first 3 min, the tracer was distributed within the whole body, reaching every tissue (Figure 5A).
The radiotracer [^18F]1 was injected into the tail vein, entered the heart, and was subsequently distributed throughout the whole body. […] Nearly no tracer accumulated in brain and urinary bladder, facilitating a favorable signal‐to‐noise ratio. We prolonged the imaging and performed an additional PET scan after 260 min to further increase the signal‐to‐background ratio. In all investigated residual organs (kidney, lung, heart, liver, and spleen), [^18F]1 was present even after 260 min, indicating a favorable biodistribution and high metabolic stability in vivo (Figure 5F).
Adult C57bl/6 (biodistribution study, 19.8±1.3 g) or tumor-bearing NSG mice (22.2±2.2 g) were anesthetized by isoflurane/O2, and one lateral tail vein was cannulated using a 27 G needle. A respective radiotracer (~ 390 kBq/g body weight) was injected as a bolus via the tail vein, and subsequent PET scanning was performed. A ~1000-fold excess of unlabeled JMS0414 (14 for [^18F]MRS-4648 ([^18F]2)), unlabeled PSB-19427 (1), or PSB-12651 (15) (for [^18F]PSB-19427 ([^18F]1)) was injected into a subgroup of tumor-bearing mice 10 min before radiotracer injection in the blocking studies. PET imaging studies were carried out using a submillimeter high resolution (0.7 mm full width at half-maximum) small animal scanner (32 module quadHIDAC, Oxford Positron Systems Ltd., Oxford, UK) with a uniform spatial resolution (<1 mm) over a large cylindrical field (165 mm diameter, 280 mm axial length). List-mode data were acquired for 90 min and reconstructed into dynamic time frames using an iterative reconstruction algorithm. In a subgroup of mice, measurements were complemented by late time point PET scans for 20 min 4 h after injection. Subsequently, after PET acquisitions, the scanning bed was transferred to the computed tomography (CT) scanner (Inveon, Siemens Medical Solutions, U.S.), and a CT acquisition with a spatial resolution of 80 μm was performed for each mouse. Final acquisitions were performed as contrast-enhanced CT with i.v. injection of iopromid (Ultravist®370). Reconstructed image data sets were coregistered based on extrinsic markers attached to the multimodal scanning bed, and the in-house developed image analysis software MEDgical (EIMI) was used for quantification. Three-dimensional volumes of interest (VOIs) were defined over the respective organs in CT data sets, transferred to the coregistered PET data, and analyzed quantitatively. Regional uptake was calculated as the percentage of injected dose by dividing counts per min (cpm) in the VOI by total counts in the mouse multiplied by 100 (%ID/mL). The clearance of the radiotracers was calculated based on the PET results. PET imaging studies using [^18F]FDG were performed analogously with a few variations. List-mode data were acquired for 60-75 min after tracer injection and reconstructed using an iterative reconstruction algorithm. Additionally, the scanned mice remained alive after PET and CT scans and were used the next day for imaging experiments with [^18F]PSB-19427 ([^18F]1) for direct comparison of [^18F]FDG and [^18F]PSB-19427 ([^18F]1). […]

Structure (SMILES) | logD [1] | Ki [2] [nM] | Radiosignal in blood ([3]; after 90 min) [%ID/mL] | Hepatobiliary excretion ([3]; within the first 30 min) [%ID] | Renal excretion ([3]; within the first 30 min) [%ID] | Fraction of tracer excreted ([3]; within the first 30 min, i.v., female C57BL/6 WT mice) [%] | Hepatobiliary excretion route ([3]; at 90 min p.i.) [%ID] | Radiosignal proportion in the blood ([3]; at 90 min p.i.) | Renal excretion route ([3]; time not given) [%ID]
CCCN(Cc1ccc(-c2cn(CCF)nn2)cc1)c1nc(Cl)nc2c1ncn2[C@@H]1O[C@H](COP(=O)(O)CP(=O)(O)O)[C@@H](O)[C@H]1O [compound 1] | -0.12 ± 0.03 | 1.02 | – | – | – | – | – | – | –
Cn1c(=O)n([C@@H]2O[C@H](COP(=O)(O)CP(=O)(O)O)[C@@H](O)[C@H]2O)cc/c1=N/OCc1ccc(-c2cn(CC[18F])nn2)cc1 [[^18F]2, [^18F]-{[(2R,3S,4R,5R)-5-(4-{[(4-{1-[2-(fluoro)ethyl]-1H-1,2,3-triazol-4-yl}benzyl)-oxy]imino}-3-methyl-2-oxo-3,4-dihydropyrimidin-1(2H)-yl)-3,4-dihydroxytetra-hydrofuran-2-yl]methoxy}methylenebisphosphonic acid] | 0.74 ± 0.29 | 0.664 ± 0.089 | 0.3 ± 0.1 | 60 | 19 | > 95 | – | – | –
CCCN(Cc1ccc(-c2cn(CC[18F])nn2)cc1)c1nc(Cl)nc2c1ncn2[C@@H]1O[C@H](COP(=O)(O)CP(=O)(O)O)[C@@H](O)[C@H]1O [[^18F]1, [^18F]-[((2R,3S,4R,5R)-5-{2-chloro-6-[(4-{1-[2-(fluoro)ethyl]-1H-1,2,3-triazol-4-yl}benzyl)-(propyl)amino]-9H-purin-9-yl}-3,4-dihydroxytetrahydrofuran-2-yl)methoxy]methylene-bisphosphonic acid] | -0.12 | 1.02 ± 0.11 | – | – | – | – | 37 | 18.2% ± 1.7 %ID/g | 2
